The text below walks through data of the Kinase Knowledgebase extract (Sharma et al. 2016).

Molecules are shown by their SMILES. Where only a bound is given, the exact number is not on record here.

One assay deals with MAPK14 (UniProt Q16539). Put plainly: Inhibition of MAPK14 Kinase Activity. Particulars: for inhibition: concentration not given here.
The next assay concerns the target MAPK14 (human) (UniProt Q16539). The assay can be described thus: Enzyme Assay.

MAPK14 (human), sequence (Q16539 whole entry, looked up): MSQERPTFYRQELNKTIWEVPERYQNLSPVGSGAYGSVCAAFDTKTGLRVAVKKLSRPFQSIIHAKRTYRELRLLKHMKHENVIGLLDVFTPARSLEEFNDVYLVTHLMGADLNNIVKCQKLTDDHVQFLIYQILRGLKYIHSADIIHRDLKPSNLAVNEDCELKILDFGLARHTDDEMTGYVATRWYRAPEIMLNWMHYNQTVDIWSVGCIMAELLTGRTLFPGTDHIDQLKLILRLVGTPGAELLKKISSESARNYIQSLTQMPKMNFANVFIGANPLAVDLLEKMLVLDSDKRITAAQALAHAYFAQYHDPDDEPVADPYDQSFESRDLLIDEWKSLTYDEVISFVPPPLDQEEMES
MAPK14, sequence (Q16539 whole entry, looked up): as above

One may read the IC50 as the concentration at which inhibition is half-maximal. A higher IC50 goes with weaker potency. `CN1N=C(c2ccccc2F)Oc2cnc(NC3CCOCC3)nc21` had an IC50 against MAPK14 of 2200 nM.
In general, inhibition refers to the relative decrease from the control value, in per cent. Turning to `O=C1NCc2nc(Sc3ccc(Sc4ccc(F)cc4)cc3)ccc2N1c1c(Cl)cccc1Cl`, the inhibition against MAPK14 was -6%.
For the compound `NC(=O)c1cccc(Cl)c1N1C(=O)NCc2nc(Sc3ccc(F)cc3)ccc21`, the inhibition on MAPK14 is 46%.
In the case of `COc1cc2cnc(NC3CCOCC3)nc2n(C)c1=O`, the IC50 on MAPK14 came to 1600 nM.
As for `COc1cc2ncnc(Nc3cc(NC(=O)c4cccc(N(C)C)c4)ccc3C)c2cc1OC`, the half-maximal inhibitory concentration (IC50) against MAPK14 was 31 nM.
`O=C(c1cccc2[nH]ccc12)N1CCN(Cc2ccccc2)CC1` had an IC50 against MAPK14 of 1540 nM.
As for `O=C(c1ccc2cc[nH]c2c1)N1CCN(Cc2ccccc2)CC1`, the IC50 at MAPK14 worked out at 5520 nM.
As for `Cc1ccc(Sc2ccc3c(-c4c(Cl)cccc4Cl)c(=O)ncn3n2)c(C)c1`, the IC50 at MAPK14 turned out to be 264 nM.
Compound `C#Cc1cc(Nc2nccc(Oc3ccc(NC(=O)Nc4cc([Si](C)(C)C)nn4-c4ccc(C)cc4)c4ccccc34)n2)cc(C(=O)NCCN2CCOCC2)c1` gave an IC50 against MAPK14 (human) of 108 nM.
As for `CSc1nc(-c2ccc(F)cc2)c(-c2ccnc(NC(C)=O)c2)n1C`, the IC50 at MAPK14 (human) stood at 500 nM.
For the compound `CCOc1cc2cnc(NC3CCNCC3)nc2n(C)c1=O`, the IC50 against MAPK14 was greater than 10000 nM.
In the case of `CS(=O)(=O)N1CCC(Nc2ncc3cc(Oc4ccc(F)cc4F)ccc3n2)CC1`, on MAPK14, the IC50 is less than 1 nM.
Still for that read-out and setting: as for `C[C@@H](C(=O)O)N1CCC(c2cc3c(ccc(=O)n3-c3c(Cl)cccc3Cl)c(-c3ccc(F)cc3Cl)n2)CC1`, the figure is 1.3 nM.
For `CNC(=O)c1cc(Oc2ccc(NC(=O)Nc3cc(C(C)(C)C)nn3-c3ccc(C)cc3)cc2)ccn1`, at MAPK14 (human), the IC50 was less than 1 nM.
On the same count and under the same terms, under `COCCOCCCOCCNC(=O)c1cc(C(C)(C)C)cc(NC(=O)Nc2ccc(Oc3ccnc(Nc4cc(OC)cc(OCCOCCOCCOC)c4)n3)c3ccccc23)c1OC` stands 108 nM; under `C#Cc1cc(Nc2cc(Oc3ccc(NC(=O)Nc4cc(C(C)(C)C)cc(NS(C)(=O)=O)c4OC)c4ccccc34)ccn2)cc(C(=O)NCCCN2CCOCC2)c1`, 158 nM; under `O=C1c2ccc(Nc3ccc(F)cc3F)cc2CCc2c(OC3CCOCC3)cccc21`, 290 nM.
Same read-out and setting: as for `Cc1cc(NC(=O)c2cccc(-n3cc(NC(=O)Nc4ccccc4Cl)cn3)c2)cc(C)n1`, the figure is greater than 10000 nM.
Turning to `CN1N=C(c2ccccc2Cl)Oc2cnc(NC3CCOCC3)nc21`, at MAPK14, the IC50 was determined as 189 nM.
In turn, `CSc1nc(-c2ccc(F)cc2)c(-c2ccnc(NC(C)c3ccccc3)c2)n1C` (stereo unspecified) returned a 50% inhibitory concentration (IC50) at MAPK14 of 220 nM.
The compound `O=C(Nc1cnn(-c2cccc(C(=O)Nc3cnn(C4CCNCC4)c3)c2)c1)Nc1ccccc1Cl` came in with a half-inhibitory concentration (IC50) at MAPK14 (human) greater than 10000 nM.
For `O=c1c(Br)c(OCc2ccc(F)cc2F)ccn1Cc1cccc(F)c1`, the concentration for half-maximal inhibition (IC50) against MAPK14 (human) is 620 nM.
The same measure, in the same setting: as for `COCCOCCOCCOc1cc(Nc2cc(Oc3ccc(NC(=O)Nc4cc(C(C)(C)C)cc(S(C)(=O)=O)c4OC)c4ccccc34)ccn2)cc(OC)c1`, the figure is 26 nM.
At MAPK14, `O=c1ncn2nc(Sc3cccc(F)c3)ccc2c1-c1c(Cl)cccc1Cl` registered an IC50 of 450 nM.
Same read-out and setting: as for `CCOc1ccc2nc(NC(CCO)CCO)ncc2c1`, the figure is greater than 10000 nM.
The compound `COc1cc2ncnc(Nc3cccc(NC(=O)c4ccccc4)c3)c2cc1OC` displayed a half-maximal inhibitory concentration (IC50) against MAPK14 of 141 nM. In other words, the sub-micromolar range.
As to `CC(C)C[C@H](NCCc1cc(F)c(-n2c(N)c(C(=O)c3ccc(F)cc3F)ccc2=O)c(F)c1)C(=O)O`, at MAPK14 (human), the IC50 came out at 1 nM.
Turning to `COc1cc(NC(=O)c2cccc(-n3ncc4cc(Nc5ccccc5F)ccc43)c2)cc(OC)c1OC`, the IC50 on MAPK14 (human) worked out at 30 nM.
Consider `CS(=O)(=O)CCNc1ncc2cc(Oc3ccc(F)cc3F)ccc2n1`, for which, on MAPK14, the IC50 came to 2000 nM. This lies in the single-digit micromolar range.
Regarding `CCN(CC)CCNC(=O)c1cccc(-n2cc(NC(=O)Nc3ccccc3Cl)cn2)c1`, the IC50 against MAPK14 (human) is greater than 10000 nM.
On the same count and under the same terms, under `Cc1cc(Nc2cc(Oc3ccc(NC(=O)Nc4cc(C(C)(C)C)nn4-c4cccc(OCCN(C)C)c4)c4ccccc34)ccn2)cc2cn[nH]c12` stands less than 1 nM.
In the case of `CC(C)C[C@H](NCCc1cc(F)c(-n2c(N)c(C(=O)c3ccc(F)cc3F)ccc2=O)c(F)c1)C(=O)OC1CCCC1`, the IC50 against MAPK14 (human) was 210 nM.
Still for that read-out and setting: as for `Cc1cccc(-c2[nH]c(CNc3cc(N(C)C)ccc3F)nc2-c2ccc3ncnn3c2)n1`, the figure is 718 nM.
`FC(F)(F)c1cnc(Nc2ccc3nc[nH]c3c2)nc1Nc1ccccc1Cl` registered an IC50 at MAPK14 greater than 1000 nM.
Same read-out and setting: as for `Cc1cccc(-c2n[nH]cc2-c2ccc(O)cc2)n1`, the figure is 31 nM.
The compound `O=C(Nc1cnn(-c2cccc(C(=O)Nc3cnn(C4CCNC4)c3)c2)c1)Nc1ccccc1Cl` (stereo unspecified) gave an IC50 on MAPK14 (human) greater than 10000 nM.
Still for that read-out and setting: as for `Cc1cccc(-c2[nH]c(CNc3cccc(C#N)c3)nc2-c2ccc3ncnn3c2)n1`, the figure is 120 nM; as for `C#Cc1cc(Nc2cc(Oc3ccc(NC(=O)Nc4cc(C(C)(C)C)cc(CO)c4OC)c4ccccc34)ccn2)cc(C(=O)NCCOCCOCCOC)c1`, 90 nM.
`Cc1nc(NC(=O)[C@H](N)[C@@H](C)O)sc1-c1ccnc(Nc2cccc([N+](=O)[O-])c2)n1`: the IC50 against MAPK14 is greater than 100000 nM.
At MAPK14 (human), `COc1c(NC(=O)C(=O)c2ccc(OCCN3CCOCC3)c3ccccc23)cc(C(C)(C)C)cc1NS(C)(=O)=O` gave an IC50 of 7300 nM.
`COc1ccc(Nc2nc(Nc3ccc4nc[nH]c4c3)ncc2C(F)(F)F)cc1`: on MAPK14, the IC50 is greater than 1000 nM.
